PubChem BioAssay AID743118 (The Scripps Research Institute Molecular Screening Center, 2013)

What was measured:
[1] = target: Acyl-protein thioesterase 2 (Homo sapiens) (UniProt O95372); assay: LYPLA1 and LYPLA2 inhibitor potency in vitro, late-stage follow-up, cell lysate, HeLa soluble proteome, fluorescence gel (AID 743118); settings: gel-based ABPP FP-Rh fluorescence, LYPLA2
[2] = target: Acyl-protein thioesterase 1 (Homo sapiens) (UniProt O75608); assay: as above; settings: gel-based ABPP FP-Rh fluorescence, LYPLA1
Acyl-protein thioesterase 1 (Homo sapiens), sequence (O75608 whole entry, looked up): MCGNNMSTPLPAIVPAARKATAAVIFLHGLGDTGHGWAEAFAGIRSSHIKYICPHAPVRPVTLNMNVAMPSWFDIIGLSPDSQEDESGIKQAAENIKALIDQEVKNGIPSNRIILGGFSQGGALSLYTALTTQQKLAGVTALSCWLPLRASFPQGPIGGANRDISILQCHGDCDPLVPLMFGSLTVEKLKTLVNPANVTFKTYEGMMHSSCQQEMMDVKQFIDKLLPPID

Acyl-protein thioesterase 2 (Homo sapiens), sequence (O95372 whole entry, looked up): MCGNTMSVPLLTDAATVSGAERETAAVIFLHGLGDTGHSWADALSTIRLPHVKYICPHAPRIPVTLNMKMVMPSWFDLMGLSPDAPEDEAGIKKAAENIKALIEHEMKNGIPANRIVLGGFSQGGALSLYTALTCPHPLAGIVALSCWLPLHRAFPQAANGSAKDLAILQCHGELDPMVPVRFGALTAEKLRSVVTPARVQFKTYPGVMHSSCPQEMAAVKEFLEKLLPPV

| IC50 [1] | IC50 [2] | SMILES |
| --- | --- | --- |
| 245 nM | 122 nM | O=C(ON1C(=O)C2CN(C(=O)N3CCOCC3)CCN2C1=O)N1CCC(CCc2ccc(Cl)cc2)CC1 (stereo not given) |
| 726 nM | 306 nM | O=C(ON1C(=O)C2CN(C(=O)c3ccc(Br)cc3)CCN2C1=O)N1CCC(CCc2ccc(Cl)cc2)CC1 (stereo not given) |
| 258 nM | 154 nM | O=C(ON1C(=O)C2CN(C(=O)N3CCCCC3)CCN2C1=O)N1CCC(CCc2ccc(Cl)cc2)CC1 (stereo not given) |
| 384 nM | 225 nM | O=C(ON1C(=O)C2CN(C(=O)N3CCCC3)CCN2C1=O)N1CCC(CCc2ccc(Cl)cc2)CC1 (stereo not given) |
| 217 nM | 92 nM | CC(C)(C)CC(=O)N1CCN2C(=O)N(OC(=O)N3CCC(CCc4ccc(Cl)cc4)CC3)C(=O)C2C1 (stereo not given) |
